Test results from patent US20150232876A1, “Use of a Receptor Kinase Having LysM Motifs in Order to Improve the Response of Plants to Lipochitooligosaccharides” (INSTITUT NATIONAL DE LA RECHERCHE AGRONOMIQUE, priority 2012, published 2015).

Key:
[1] = system: 100 kDa polypeptide (MtNFBS2); test: Photolabeling of the 100 kDa polypeptide in membrane fractions, with excess competitors; type: binding, Medicago truncatula; conditions: 2 μM competitor, 5 nM azido ligand, dmi3 membrane fraction
Excerpt: To assess the molecular mass of the affine protein of Nod factors responsible for binding properties of MtNFBS2, a photolabeling with Nod factors analogs containing a photoactivatable group, which after irradiation in a given wavelength reactive species which can form a covalent bond with the surrounding molecules, has been taken. […] homologues of these molecules have been synthesized and labeled with ^35S to enable detection of the stable complex ligand/binding protein.
For photolabeling, 5 nM of radioactive and photoactivatable ligand, alone or in the presence of an excess (2 μM) different competitors were incubated in binding buffer, in the same conditions as described in Example 1 above for the binding experiments at equilibrium, with 300 micrograms of membrane protein fraction obtained from cultured cells of wild-type Medicago truncatula (A 17), or the dmi3 mutant of Medicago truncatula. After 1 hour of incubation, the samples were irradiated for 5 min at 254 nm or 10 min at 365 nm with a fluorescent tube at a distance of 4 cm. The free ligand was removed by centrifugation, and the membrane pellet was washed two times in binding buffer.
The membrane pellet proteins were separated by polyacrylamide gel electrophoresis in 10% SDS, and transferred onto nitrocellulose membrane, and detection was carried out by autoradiography.

LYR3 = LYR3 (Medicago truncatula, UniProt G7KAT5); test: Saturation and competitive binding on LYR3-YFP expressed in N. benthamiana leaf membrane fractions; conditions: LYR3-YFP in N. benthamiana leaf membranes; competition with 0.9 nM LCO-IV(35S, C16:2Δ2,9); read-out: Affinity (nM) for LYR3 (Ki)
LYR3, sequence (G7KAT5 entry or part of it): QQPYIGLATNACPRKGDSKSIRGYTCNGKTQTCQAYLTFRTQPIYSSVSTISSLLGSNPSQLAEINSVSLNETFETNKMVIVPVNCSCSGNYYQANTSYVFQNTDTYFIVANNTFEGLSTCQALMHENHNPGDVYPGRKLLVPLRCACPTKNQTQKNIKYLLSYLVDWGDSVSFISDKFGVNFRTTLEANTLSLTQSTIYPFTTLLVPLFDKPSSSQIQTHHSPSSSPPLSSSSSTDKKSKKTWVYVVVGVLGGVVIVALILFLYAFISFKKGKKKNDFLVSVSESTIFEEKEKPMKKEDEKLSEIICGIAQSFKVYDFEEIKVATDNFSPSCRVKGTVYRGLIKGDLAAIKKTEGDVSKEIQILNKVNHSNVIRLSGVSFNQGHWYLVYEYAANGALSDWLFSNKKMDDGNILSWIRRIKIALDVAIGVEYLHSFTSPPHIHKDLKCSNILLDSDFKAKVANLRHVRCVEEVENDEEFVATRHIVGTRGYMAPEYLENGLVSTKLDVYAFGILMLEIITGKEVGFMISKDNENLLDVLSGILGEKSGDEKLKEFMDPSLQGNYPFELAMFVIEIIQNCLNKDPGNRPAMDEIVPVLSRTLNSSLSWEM
Excerpt: Genes LYR3, LYK9 and LYR6 were inserted into a binary vector, fused in C-terminal with a fluorescent protein (Yellow Fluorescent Protein: YFP) and introduced into Nicotiana benthamiana leaves using agroinfiltration by Agrobacterium tumefaciens. Meanwhile, NFP and LYK3 genes which encode putative receptors […] Nod factors were inserted into the same vectors and expressed in the same conditions.
3 days after agro-infiltration, leaves of N. benthamiana expressing the different constructs were harvested and ground in liquid nitrogen. Membrane fractions were prepared from the ground material, using the same protocol as that described above for the preparation of microsomal fractions, except that 0.6% (w/v) of polyvinyl-polypyrrolidone were added to extraction buffer. After centrifugation at 3000×g, the supernatant was collected and centrifuged at 45000×g. The resulting (membrane fraction) pellet was resuspended in binding buffer, and stored at −80° C. in the presence of 10% or 50% glycerol, until use.
Membrane proteins were separated by 10% polyacrylamide gel electrophoresis in SDS, and transferred onto nitrocellulose membrane, and detection of recombinant proteins made using anti-GFP antibody. Meanwhile, the properties of specific binding to LCOs were assessed by equilibrium binding, as described in Example 1, using 0.8 to 2.4 nM of LCO-IV (^35S, C16:2Δ2, 9) +/−2 μM of unlabeled LCO-IV (S, C16: 2Δ2, 9), and 25 micrograms to 80 micrograms of membrane protein, depending of the expression level of the protein labeled with YFP.
To further characterize the binding properties of the protein LYR3, saturation binding experiments using LCO-IV (^35S, C16:2Δ2, 9) and competitive binding experiments in the presence of different COs or LCOs were performed.

PpLYR3 = PpLYR3 (Prunus persica, UniProt A0A251NBL6); test: Equilibrium, saturation and competition binding on PpLYR3 expressed in N. benthamiana leaves; conditions: PpLYR3, competition
PpLYR3, sequence (A0A251NBL6 entry or part of it): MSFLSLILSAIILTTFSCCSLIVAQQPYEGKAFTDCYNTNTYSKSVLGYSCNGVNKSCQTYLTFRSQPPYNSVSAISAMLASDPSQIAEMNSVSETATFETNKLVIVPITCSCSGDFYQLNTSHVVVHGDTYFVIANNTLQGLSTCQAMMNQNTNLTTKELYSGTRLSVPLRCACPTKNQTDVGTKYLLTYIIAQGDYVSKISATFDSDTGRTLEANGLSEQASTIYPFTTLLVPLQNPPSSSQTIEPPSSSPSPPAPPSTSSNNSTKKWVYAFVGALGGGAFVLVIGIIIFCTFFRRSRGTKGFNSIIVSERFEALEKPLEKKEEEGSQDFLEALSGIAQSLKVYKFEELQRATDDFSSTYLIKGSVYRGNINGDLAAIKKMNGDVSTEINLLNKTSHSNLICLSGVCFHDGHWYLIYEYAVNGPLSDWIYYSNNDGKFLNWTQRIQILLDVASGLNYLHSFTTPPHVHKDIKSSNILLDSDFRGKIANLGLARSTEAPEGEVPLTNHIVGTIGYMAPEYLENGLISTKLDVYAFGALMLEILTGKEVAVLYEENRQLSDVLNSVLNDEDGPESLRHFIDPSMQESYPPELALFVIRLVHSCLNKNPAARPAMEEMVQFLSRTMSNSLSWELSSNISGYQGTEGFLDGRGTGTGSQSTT
Protocol: In non-legumes, PpLYR3, SILYR3 and AtLysM-RLK4 genes have been cloned, the corresponding proteins were expressed in N. benthamiana leaves, and their ability to bind to LCOs was determined by binding experiments at equilibrium, as described above for legumes LYR3 proteins.
The interaction of PpLYR3 with the Nod LCO-IV (^35S, C16:2Δ2, 9) factor has been characterized in more detail by means of saturation and competition experiments. The results obtained are illustrated in FIG. 9. […] Similarly, PpLYR3 specifically recognizes the LCOs as interaction with COs (CO-IV and CO-VIII) is of low affinity (Ki>5 μM).

PsLYR3 = PsLYR3 (Lathyrus oleraceus, UniProt A0A9D5BD18); test: Equilibrium, saturation and competitive binding on MtLYR3 ortholog expressed in N. benthamiana leaves; set-up: species or system Pisum sativum; conditions: PsLYR3; for Ki: read-out: Affinity (Ki)
PsLYR3, sequence (A0A9D5BD18 entry or part of it): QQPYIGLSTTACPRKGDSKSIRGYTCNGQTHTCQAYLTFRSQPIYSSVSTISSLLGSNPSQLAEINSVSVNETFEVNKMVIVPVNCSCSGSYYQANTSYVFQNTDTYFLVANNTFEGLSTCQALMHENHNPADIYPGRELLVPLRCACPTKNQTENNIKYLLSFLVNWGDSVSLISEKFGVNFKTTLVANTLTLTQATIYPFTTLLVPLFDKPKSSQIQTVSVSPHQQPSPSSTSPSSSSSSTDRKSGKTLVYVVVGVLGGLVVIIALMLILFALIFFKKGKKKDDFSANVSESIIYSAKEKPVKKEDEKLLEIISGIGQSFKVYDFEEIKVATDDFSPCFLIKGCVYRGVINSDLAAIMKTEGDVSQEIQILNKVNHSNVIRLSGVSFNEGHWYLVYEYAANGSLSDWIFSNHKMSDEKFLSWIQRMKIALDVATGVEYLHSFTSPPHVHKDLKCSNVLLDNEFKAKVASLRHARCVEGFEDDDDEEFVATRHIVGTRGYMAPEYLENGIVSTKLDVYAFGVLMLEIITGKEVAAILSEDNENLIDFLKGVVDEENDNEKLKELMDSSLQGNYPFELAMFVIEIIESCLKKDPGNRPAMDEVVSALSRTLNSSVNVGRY
Excerpt: (§1) In legumes, MtLYR3 orthologs have been identified in P. sativum, P. vulgaris and L. japonicus. In G. max orthologs exist in duplicate due to a duplication of the genome. The corresponding genes have been cloned and sequenced. A few differences in sequence compared with sequences in the databases were found which could be explained by the use of different varieties of plants or by sequencing errors in databases. The cloned genes were introduced into binary vectors, in C-terminal fusion with the fluorescent protein YFP, and introduced into Nicotiana benthamiana leaves using agroinfiltration by Agrobacterium tumefaciens, as described above in Example 3. The membrane fractions were isolated, their protein content was analyzed by electrophoresis under denaturing conditions, followed by immunodetection using anti-GFP antibody as described in Example 3, and their ability to interact with LCOs was determined by equilibrium binding, as described in Example 1, in the presence of 1 nM LCO-IV (S^35, C16:2Δ2, 9). The value of specific binding is determined by the value of difference between the total binding and the nonspecific binding obtained for incubation in the presence of an excess (2 μM) of unlabeled ligand. For comparison, the ability to interact of LjNFR5 and LjNFR1 receptors, identified in L. japonicus to play a role in nodulation by a genetic approach (MADSEN et al, Nature, 425, 637-40, 2003. RADUTOIU et al., Nature, 425, 585-92, 2003a) and respective orthologs of LYK3 and NFP in M. truncatula was determined under the same conditions.
(§2) To further characterize the binding properties of MtLYR3 orthologs to LCOs, saturation and competitive binding experiments in the presence of different COs or LCOs were performed.

GmLYR3-1 = GmLYR3-1 (Glycine max, UniProt A5YJW2); test: as above; conditions: GmLYR3-1; for Ki: read-out: Affinity (Ki)
GmLYR3-1, sequence (A5YJW2 entry or part of it): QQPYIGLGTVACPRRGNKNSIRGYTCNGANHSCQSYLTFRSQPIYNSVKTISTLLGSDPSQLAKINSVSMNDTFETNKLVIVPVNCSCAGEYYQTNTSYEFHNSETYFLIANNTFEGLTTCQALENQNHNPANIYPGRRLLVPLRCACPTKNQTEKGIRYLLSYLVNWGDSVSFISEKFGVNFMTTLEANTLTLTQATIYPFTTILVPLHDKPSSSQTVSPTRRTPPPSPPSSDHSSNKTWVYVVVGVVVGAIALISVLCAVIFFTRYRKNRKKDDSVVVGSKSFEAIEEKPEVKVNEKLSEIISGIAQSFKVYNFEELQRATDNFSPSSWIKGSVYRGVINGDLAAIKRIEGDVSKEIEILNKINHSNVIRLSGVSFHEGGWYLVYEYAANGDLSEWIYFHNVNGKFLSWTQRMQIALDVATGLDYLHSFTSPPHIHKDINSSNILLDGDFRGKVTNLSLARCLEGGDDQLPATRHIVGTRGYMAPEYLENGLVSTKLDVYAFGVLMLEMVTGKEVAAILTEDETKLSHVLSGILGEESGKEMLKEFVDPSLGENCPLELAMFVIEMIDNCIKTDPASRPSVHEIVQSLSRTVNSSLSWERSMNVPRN
Excerpt: as §1, §2

GmLYR3-11 = GmLYR3-11 (Glycine max, UniProt I1LHL9); test: as above; conditions: GmLYR3-11; for Ki: read-out: Affinity (Ki)
GmLYR3-11, sequence (I1LHL9 entry or part of it): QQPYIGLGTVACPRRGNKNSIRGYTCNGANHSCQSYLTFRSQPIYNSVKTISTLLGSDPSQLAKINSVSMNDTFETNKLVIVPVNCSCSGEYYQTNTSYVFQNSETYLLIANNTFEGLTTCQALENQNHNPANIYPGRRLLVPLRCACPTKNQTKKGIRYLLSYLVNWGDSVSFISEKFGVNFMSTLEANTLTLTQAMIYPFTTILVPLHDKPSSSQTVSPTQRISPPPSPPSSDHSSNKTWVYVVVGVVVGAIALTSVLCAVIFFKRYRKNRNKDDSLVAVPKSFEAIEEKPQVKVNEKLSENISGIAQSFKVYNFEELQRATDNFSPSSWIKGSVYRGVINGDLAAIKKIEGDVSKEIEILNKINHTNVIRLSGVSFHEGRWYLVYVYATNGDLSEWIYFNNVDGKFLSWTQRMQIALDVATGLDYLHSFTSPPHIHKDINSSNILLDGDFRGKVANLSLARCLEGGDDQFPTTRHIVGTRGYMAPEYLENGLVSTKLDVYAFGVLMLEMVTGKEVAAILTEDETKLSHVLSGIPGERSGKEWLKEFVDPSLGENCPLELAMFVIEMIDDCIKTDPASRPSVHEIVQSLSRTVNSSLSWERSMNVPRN
Excerpt: as §1, §2

LjLYS12 = LjLYS12 (Lotus japonicus, UniProt D3KTZ9); test: as above; conditions: LjLYS12; for Ki: read-out: Affinity (Ki)
LjLYS12, sequence (D3KTZ9 entry or part of it): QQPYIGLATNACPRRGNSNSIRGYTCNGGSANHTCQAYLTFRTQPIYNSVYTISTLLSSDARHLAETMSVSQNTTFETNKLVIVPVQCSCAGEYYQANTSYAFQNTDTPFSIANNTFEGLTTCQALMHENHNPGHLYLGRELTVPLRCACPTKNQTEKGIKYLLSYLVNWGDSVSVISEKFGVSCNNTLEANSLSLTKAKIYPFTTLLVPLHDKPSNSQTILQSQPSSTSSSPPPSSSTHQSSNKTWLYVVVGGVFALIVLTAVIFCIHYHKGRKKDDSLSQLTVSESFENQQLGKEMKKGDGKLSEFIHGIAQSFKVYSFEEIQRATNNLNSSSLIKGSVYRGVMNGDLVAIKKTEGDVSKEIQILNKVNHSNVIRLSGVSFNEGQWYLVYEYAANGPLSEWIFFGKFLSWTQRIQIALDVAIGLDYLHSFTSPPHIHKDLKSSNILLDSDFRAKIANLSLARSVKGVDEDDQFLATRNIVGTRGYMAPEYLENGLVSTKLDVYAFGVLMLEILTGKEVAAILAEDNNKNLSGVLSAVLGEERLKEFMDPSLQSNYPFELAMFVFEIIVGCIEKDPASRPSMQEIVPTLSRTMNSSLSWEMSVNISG
Excerpt: as §1, §2

PvLYR3 = PvLYR3 (Phaseolus vulgaris, UniProt V7CFC1); test: as above; conditions: PvLYR3; for Ki: read-out: Affinity (Ki)
PvLYR3, sequence (V7CFC1 entry or part of it): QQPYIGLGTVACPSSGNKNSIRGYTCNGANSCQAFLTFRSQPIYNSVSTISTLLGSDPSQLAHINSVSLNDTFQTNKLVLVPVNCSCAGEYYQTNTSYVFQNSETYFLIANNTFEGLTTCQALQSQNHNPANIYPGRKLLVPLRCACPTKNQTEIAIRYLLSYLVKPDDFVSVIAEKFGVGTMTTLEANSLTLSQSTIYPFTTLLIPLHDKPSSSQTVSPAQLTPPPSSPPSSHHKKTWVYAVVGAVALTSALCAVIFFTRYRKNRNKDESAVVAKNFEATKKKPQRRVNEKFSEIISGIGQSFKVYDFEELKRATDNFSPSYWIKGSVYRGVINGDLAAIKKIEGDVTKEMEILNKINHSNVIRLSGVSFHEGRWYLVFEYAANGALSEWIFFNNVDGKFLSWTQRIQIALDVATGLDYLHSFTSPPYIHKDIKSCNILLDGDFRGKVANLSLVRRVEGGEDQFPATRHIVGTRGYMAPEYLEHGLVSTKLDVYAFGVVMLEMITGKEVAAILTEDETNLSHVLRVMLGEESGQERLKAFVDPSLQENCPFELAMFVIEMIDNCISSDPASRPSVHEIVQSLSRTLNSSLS
Excerpt: as §1, §2

Ki (PsLYR3) [nM] | Ki (GmLYR3-1) [nM] | Ki (GmLYR3-11) [nM] | Ki (LjLYS12) [nM] | Ki (PvLYR3) [nM] | SMILES | binding of the radiolabeled photoactivatable ligand to the 100 kDa polypeptide in presence of excess competitor [1] | Ki (LYR3) [nM] | Ki (PpLYR3) [nM] | Kd (PsLYR3; read-out: Affinity (Kd)) [nM] | Kd (GmLYR3-1; read-out: Affinity (Kd)) [nM] | Kd (GmLYR3-11; read-out: Affinity (Kd)) [nM] | Kd (LjLYS12; read-out: Affinity (Kd)) [nM] | Kd (PvLYR3; read-out: Affinity (Kd)) [nM]
– | – | – | – | – | CC(=O)N[C@H]1[C@H](O[C@H]2[C@H](O)[C@@H](NC(C)=O)C(O)O[C@@H]2CO)O[C@H](CO)[C@@H](O[C@@H]2O[C@H](CO)[C@@H](O[C@@H]3O[C@H](CO)[C@@H](O)[C@H](O)[C@H]3NC(C)=O)[C@H](O)[C@H]2NC(C)=O)[C@@H]1O (stereo partly drawn) [CO-IV, chitotetraose] | not | > 5000 | > 5000 | – | – | – | – | –
> 10000 | > 10000 | > 10000 | > 10000 | > 10000 | CC(=O)N[C@H]1[C@H](O[C@H]2[C@H](O)[C@@H](NC(C)=O)[C@H](O[C@H]3[C@H](O)[C@@H](NC(C)=O)C(O)O[C@@H]3CO)O[C@@H]2CO)O[C@H](CO)[C@@H](O[C@@H]2O[C@H](CO)[C@@H](O[C@@H]3O[C@H](CO)[C@@H](O)[C@H](O)[C@H]3NC(C)=O)[C@H](O)[C@H]2NC(C)=O)[C@@H]1O (stereo partly drawn) [CO-V] | – | 12000 | – | – | – | – | – | –
50 | 70 | 140 | 42 | 23 | CCCCCCCCCCCCCCCC(=O)N[C@H]1[C@H](O[C@H]2[C@H](O)[C@@H](NC(C)=O)[C@H](O[C@H]3[C@H](O)[C@@H](NC(C)=O)[C@H](O[C@H]4[C@H](O)[C@@H](NC(C)=O)C(O)O[C@@H]4CO)O[C@@H]3CO)O[C@@H]2CO)O[C@H](CO)[C@@H](O)[C@@H]1O (stereo partly drawn) [LCO-IV(C16:0)] | – | 15 | – | – | – | – | – | –
– | – | – | – | – | CCCCCCCC/C=C\CCCCCCCC(=O)N[C@H]1[C@H](O[C@H]2[C@H](O)[C@@H](NC(C)=O)[C@H](O[C@H]3[C@H](O)[C@@H](NC(C)=O)[C@H](O[C@H]4[C@H](O)[C@@H](NC(C)=O)C(O)O[C@@H]4CO)O[C@@H]3CO)O[C@@H]2CO)O[C@H](CO)[C@@H](O)[C@@H]1O (stereo partly drawn) [LCO-IV(C18:1Δ9)] | inhibited | 22 | – | – | – | – | – | –
24 | 18 | 32 | 11 | 17 | CCCCCCCCCCCCCCCC(=O)N[C@H]1[C@H](O[C@H]2[C@H](O)[C@@H](NC(C)=O)[C@H](O[C@H]3[C@H](O)[C@@H](NC(C)=O)[C@H](O[C@H]4[C@H](O)[C@@H](NC(C)=O)C(O)O[C@@H]4COS(=O)(=O)O)O[C@@H]3CO)O[C@@H]2CO)O[C@H](CO)[C@@H](O)[C@@H]1O (stereo partly drawn) [LCO-IV(S, C16:0)] | – | 26 | – | – | – | – | – | –
– | – | – | – | – | CCCCCC/C=C\CCCCC/C=C/C(=O)N[C@H]1[C@H](O[C@H]2[C@H](O)[C@@H](NC(C)=O)[C@H](O[C@H]3[C@H](O)[C@@H](NC(C)=O)[C@H](O[C@H]4[C@H](O)[C@@H](NC(C)=O)C(O)O[C@@H]4COS(=O)(=O)O)O[C@@H]3CO)O[C@@H]2CO)O[C@H](CO)[C@@H](O)[C@@H]1O (stereo partly drawn) [LCO-IV(S, C16:2Δ2, 9)] | completely abolished | – | – | 31 | 32 | 64 | 33 | 40

SMILES | Ki (PsLYR3) [nM] | Ki (GmLYR3-1) [nM] | Ki (GmLYR3-11) [nM] | Ki (LjLYS12) [nM] | Ki (PvLYR3) [nM] | binding of the radiolabeled photoactivatable ligand to the 100 kDa polypeptide in presence of excess competitor [1] | Ki (LYR3) [nM] | Ki (PpLYR3) [nM] | Kd (PsLYR3; read-out: Affinity (Kd)) [nM] | Kd (GmLYR3-1; read-out: Affinity (Kd)) [nM] | Kd (GmLYR3-11; read-out: Affinity (Kd)) [nM] | Kd (LjLYS12; read-out: Affinity (Kd)) [nM] | Kd (PvLYR3; read-out: Affinity (Kd)) [nM]
CCCCCCCC/C=C\CCCCCCCC(=O)N[C@H]1[C@H](O[C@H]2[C@H](O)[C@@H](NC(C)=O)[C@H](O[C@H]3[C@H](O)[C@@H](NC(C)=O)[C@H](O[C@H]4[C@H](O)[C@@H](NC(C)=O)C(O)O[C@@H]4COS(=O)(=O)O)O[C@@H]3CO)O[C@@H]2CO)O[C@H](CO)[C@@H](O)[C@@H]1O (stereo partly drawn) [LCO-IV(S, C18:1Δ9)] | 16 | 12 | 19 | 7 | 13 | inhibited | 13.5 | – | – | – | – | – | –
